Results taken from PMC9781268, “2-Arylpropionic Acid Pyrazolamides as Cannabinoid CB2 Receptor Inverse Agonists Endowed with Anti-Inflammatory Properties” (Pharmaceuticals, 2022).
≈ marks a conversion by molar mass, not a printed value.

Key:
[1] = Parallel artificial membrane permeability assay, blood-brain barrier (PAMPA-BBB); details: for PAMPA-BBB Score: porcine brain lipid membrane
Procedure: In a 5 mL glass vial, 1 mg of each compound (test or control) was dissolved in 1 mL of ethanol. Then, 500 μL of ethanol and 3.5 mL of PBS at pH 7.4 were added to this solution. […] After 5 min, the donor plate received 180 μL of each compound solution in triplicate. […] The experiments were performed in triplicate with two different analyses (n = 2).

[2] = parameters: method as in ZHU et al., 2002; details: Table S1, PAMPA-GTI, drugs used as standard; ref ZHU et al., 2002; cited from earlier work
[3] = Table S2, PAMPA-BBB, drugs used as standard; cited from earlier work
[4] = Aqueous solubility (thermodynamic, UV spectroscopy); type: physicochemical; details: aqueous buffer, thermodynamic from solid, phosphate buffer pH 7.4, 37 °C
Procedure: The test was performed based on the absorbance obtained by ultraviolet spectroscopy. The scanning wavelength was determined according to the highest absorbance observed for each compound. Saturated aqueous solution of the analyzed compounds were stirred for 4 h at 37 °C, and then filtered through a 0.45 µm PVDF filter and transferred to a quartz cuvette (10 mm optical path) for reading. Solubility was determined by linear regression based on the equation of the line.

[5] = Distribution coefficient at pH 7.4 (shake-flask, octanol/phosphate buffer); type: physicochemical; details: 1-octanol/buffer pH 7.4; n-octanol/buffer partitioning at pH 7.4, UV method; read-out: Log D7.4
Procedure: The assay was performed based on the shake-flask method and the absorbance readings by ultraviolet spectroscopy at maximum absorbance wavelength. To a Falcon tube with a capacity of 15 mL, 5 mL of buffer solution at pH 7.4 and 5 mL of 1-octanol were added. Then, the tested compounds were added at defined concentrations of approximately 10–15 µM, and the mixtures were homogenized via vigorous manual shaking. Next, the Falcon tubes were stirred for 4 h at 37 °C, and the experiment was carried out in triplicate for each compound. Subsequently, each sample was placed in a separatory funnel, and the collected aqueous phase was filtered through a 0.45 µm PVDF filter and transferred to a quartz cuvette (10 mm optical path) for UV/Vis reading. The distribution coefficient of each compound at pH 7.4 was determined by linear regression using the straight-line equation [33].

[6] = tested on: plasma carboxylesterases; test: Plasma stability against enzymatic hydrolysis; type: in vitro ADME, Wistar rats; details: rat plasma, determined after 240 min
Procedure: For the evaluation of plasma stability against plasma carboxylesterases, a pool of plasma male Wistar rats weighing 300–360 g kept in the vivarium of the Laboratory of Biochemical and Molecular Pharmacology-UFRJ was used. Blood was collected with heparin and kept on ice. Then, the samples were centrifuged at 2000 rpm for 15 min at 20 °C, with subsequent removal of the plasma. The plasma was then diluted 80% (v/v) with phosphate buffer (PBS; pH = 7.4) at 37 °C. The experiments performed in this work were approved by the Ethics Committee on the Use of Animals in Scientific Experiments of the Health Sciences Center of the Federal University of Rio de Janeiro (Number 028/15). The biological matrix was incubated at 37 °C under agitation for 30, 60, 120, and 240 min. The degree of degradation was evaluated by HPLC-PDA with methyl 1,1′bisphenyl-4-carboxylate as an internal standard (PI), using an isocratic mobile phase of 70%:30% acetonitrile:water (0–15 min), an injection volume of 20 μL, a flow rate of 1 mL/min, and detection at 254 nm.

[7] = Parallel artificial membrane permeability assay, gastrointestinal (PAMPA-GI / PAMPA-GTI); details: for Papp at 8 h, 0.5 mM: PAMPA; for Classification / Pe Exp / Fa: Table S1, PAMPA-GTI; for Fa / PAMPA-GI Fa Exp: absorbed fraction; for PAMPA-GI Fa Exp: soybean L-α-phosphatidylcholine membrane
Procedure: A 10 mM solution of each compound (tests and controls) was prepared in DMSO. Then, in a 5 mL glass flask, 250 µL of the freshly prepared solution was homogenized with 4750 µL of PBS at pH 6.6 to a concentration of 10 mM. The solution was then filtered in a 0.45 µm PVDF filter and set aside. Then, 180 µL of a solution of phosphate-bufffered saline (PBS, pH 7.4):DMSO (95:5) was added to the wells of the receptor plate, and 5 µL of the soy L-α-phosphatidylcholine lipid solution (20 mg/mL in dodecane) was added to the wells of the donor plate. After 5 min, the donor plate received 180 µL of the reserved solution containing each compound. […] After this period, the donor plate was removed, and the contents of the recipient plate were transferred to a UV reading plate and read (SpectraMax 5, Molecular Devices) at the maximum wavelengths for each compound. The blank was prepared with 180 µL of PBS solution (pH 7.4):DMSO (95:5). The experiments were carried out in triplicate with two different analyses (n = 2) [37]. The optical density values obtained from the readings at each selected wavelength for each of the compounds were analyzed by comparison with the values of the controls. These values were used to determine the absorbed fraction (Fa %) using the JMP® program version 10.0.

[8] = target: CB2 receptor; parameters: method as in PMID 22172309; details: cited from earlier work; for Ki: CB2 receptor
[9] = tested on: CB1 receptors; parameters: method as in PMID 22172309; details: cited from earlier work
[10] = PAMPA, 2.75 h, 0.2 mg/mL, pH 7.4

Structure (SMILES) | Pe experimental [1, 10] | Classification ([1]; Table S2, PAMPA-BBB) | Pe Lit [2] | Pe literatura [3] | solubility at 4 h [4] [µM] | logD [5] | Papp at 2.75 h, 0.2 mg/mL ([1]; PAMPA, pH 7.4) [nm/s] | Pe experimental ([1]; Table S2, PAMPA-BBB) | PAMPA-BBB Score [1] | Plasma Metabolization Rate [6] [%] | melting point [°C] | Papp at 8 h, 0.5 mM [7] [nm/s] | Classification [7] | Pe Exp [7] | Fa [7] | PAMPA-GI Fa Exp [7] [%] | Ki [8] [µM] | Affinity for CB2 receptors [8] | Affinity for CB1 receptors [9]
CC(C)NCC(O)COc1ccc(CC(N)=O)cc1 (stereo not drawn) [Atenolol, reference compound] | 0,46 10-6 cm s-1 | CNS - | 0,1 10-6cm/s | 0,8 10-6 cm s-1 |  |  |  |  |  |  |  |  |  |  |  |  |  |  | 
Cn1c(=O)c2c(ncn2C)n(C)c1=O [Caffeine, reference compound] | 0,81 10-6 cm s-1 | CNS - |  | 1,3 10-6 cm s-1 |  |  |  |  |  |  |  |  |  |  |  |  |  |  | 
CCn1cc(C(=O)O)c(=O)c2cc(F)c(N3CCNCC3)nc21 [Enoxacin, reference compound] | 0,53 10-6 cm s-1 | CNS - |  | 0,9 10-6 cm s-1 |  |  |  |  |  |  |  |  |  |  |  |  |  |  | 
Cc1c(NC(=O)C(C)c2ccc(CC(C)C)cc2)c(=O)n(-c2ccccc2)n1C (stereo not drawn) [Compound 7, N-(1,5-dimethyl-3-oxo-2-phenyl-2,3-dihydro-1H-pyrazol-4-yl)-2-(4-isobutylphenyl) propanamide] |  | CNS + |  |  | 12.1 (≈ 4.75 µg/mL) | 2.47 | 128 | 12,77 10-6 cm s-1 | CNS+ (CNS+ (high predicted BBB permeability) Pe > 4.0 × 10^−6 cm/s) | 56.13 | 151.2 | 154 | HIGH (high intestinal permeability: >70%) | 15,38 10-6 cm/s | 99,71% | 99.71 |  |  | 
CCCCC/C=C\C/C=C\C/C=C\C/C=C\CCCC(=O)Nc1c(C)n(C)n(-c2ccccc2)c1=O [Compound 5] |  |  |  |  |  |  |  |  |  |  |  |  |  |  |  |  | 5.4 | micromolar affinity | micromolar affinity
CN1C(=O)CN=C(c2ccccc2)c2cc(Cl)ccc21 [Diazepam, reference compound] |  | CNS + |  | 16 10-6 cm s-1 |  |  |  | 14,30 10-6 cm s-1 |  |  |  |  |  |  |  |  |  |  | 
CCCCC/C=C\C/C=C\C/C=C\C/C=C\CCCC(=O)N(C)c1c(C)n(C)n(-c2ccccc2)c1=O [Compound 6] |  |  |  |  |  |  |  |  |  |  |  |  |  |  |  |  | 3 | micromolar affinity | micromolar affinity
Cc1c(NC(=O)Cc2ccc(-c3ccccc3)cc2)c(=O)n(-c2ccccc2)n1C [Compound 9, 2-([1,1’-biphenyl]-4-yl)-N-(1,5-dimethyl-3-oxo-2-phenyl-2,3-dihydro-1H-pyrazol-4-yl) acetamide] |  | CNS + |  |  | 21.3 (≈ 8.47 µg/mL) | 2.14 | 45.1 | 4,51 10-6 cm s-1 | CNS+ (CNS+ (high predicted BBB permeability) Pe > 4.0 × 10^−6 cm/s) | 24.56 | 221.8 | 110 | HIGH (high intestinal permeability: >70%) | 11,00 10-6 cm/s | 98,47% | 98.47 |  |  | 
Cc1c(N(C)C(=O)C(C)c2ccc(CC(C)C)cc2)c(=O)n(-c2ccccc2)n1C (stereo not drawn) [Compound 10, N-(1,5-dimethyl-3-oxo-2-phenyl-2,3-dihydro-1H-pyrazol-4-yl)-2-(4-isobutylphenyl)-N-methylpropanamide] |  | CNS + |  |  | 47.7 (≈ 19.3 µg/mL) | 2.43 | 127 | 12,68 10-6 cm s-1 | CNS+ (CNS+ (high predicted BBB permeability) Pe > 4.0 × 10^−6 cm/s) | 32.50 |  | 25.1 | HIGH (high intestinal permeability: >70%) | 9,15 10-6 cm/s | 96,91% |  |  |  | 
Cc1c(NC(=O)C(C)c2ccc(-c3ccccc3)c(F)c2)c(=O)n(-c2ccccc2)n1C (stereo not drawn) [Compound 8, N-(1,5-dimethyl-3-oxo-2-phenyl-2,3-dihydro-1H-pyrazol-4-yl)-2-(2-fluoro-[1,1^′-biphenyl]-4-ylil) propanamide] |  | CNS + |  |  | 59.1 (≈ 25.4 µg/mL) | 1.94 | 172 | 17,25 10-6 cm s-1 | CNS+ (CNS+ (high predicted BBB permeability) Pe > 4.0 × 10^−6 cm/s) | 18.66 | 214.8 | 96.9 | HIGH (high intestinal permeability: >70%) | 9,69 10-6 cm/s | 97,49% | 97.49 |  |  | 
